We go through 32 compounds from US9499535B2, “Kinase inhibitors” (ORIGENIS GMBH, priority 2011, dated 2016).

The target in one assay is T1, SYK kinase (Homo sapiens, UniProt P43405).
T1 construct: purchased Invitrogen, Carlsbad
In words: SYK assay (OMNIA Kinase Assay, Invitrogen). The format is biochemical. The note with it: apparent Ki calculated from the IC50 using the Cheng-Prusoff equation; 1 mM ATP, 10 μM Peptide Substrate; read-out: SYK Activities: Ki. Here is the method: In the assay OMNIA® KINASE ASSAY by Invitrogen Corporation (Carlsbad) the effect of invention of a compound on the phosphorylation is determined by measurement of fluorescence intensity of a chelation-enhanced fluorophore called SOX. Upon phosphorylation of the peptide by the kinase of interest, Mg2+ is chelated to form a bridge between the SOX moiety and the phosphate group that is transferred to the specific tyrosine on the peptide. The fluorescence intensity is directly proportional to the amount of peptide phosphorylation.
To the wells of an 384 well small volume plate (Greiner, Frickenhausen) are added (i) the compound under test in 5% DMSO/distilled water (2 μl), (ii) 16 μl of the master mix containing ATP, DTT, Kinase Reaction Buffer, Omina Peptide Substrate Tyr 7 resulting in a final concentration of 1 mM ATP, 0.2 mM DTT and 10 μM Peptide Substrate.
The Master Mix and the assay plate was incubated to reaction temperature before the measurement (30° C.). The reaction was started with addition of (iii) 2 μl 4 μg/ml SYK kinase (Invitrogen, Carlsbad). During measurement fluorescence intensitiy readings were collected using a TECAN M1000 at a wavelength of λex 360/λem 485 nm every 30 s for 30 minutes. The reaction velocity was plotted versus the inhibitor concentration to determine the IC50 using XLFit 5.0 (IDBS, Guildford) to fit to a sigmoidal dose response curve, and the apparent Ki values were calculated from the IC50 using the Cheng-Prusoff equation (Cheng, Y.; Prusoff, W. H. Biochem. Pharmacol. 22, 3099-3108, 1973).

Another assay addresses LRRK2 (Homo sapiens, UniProt Q5S007). In words: LRRK2 assay (LanthaScreen Eu Kinase Binding Assay). The note with it: 5 nM LRRK2, 10 nM tracer 236, RT 1 h; read-out: LRRK2 Activites: IC50. The text has this: Binding of the tracer to the kinase is detected using a europium-labeled anti-tag antibody, which binds to the kinase of interest. […] Binding of an inhibitor to the kinase competes for binding with the tracer, resulting in a loss of FRET. The fluorescence intensity ratio is directly proportional to the amount of peptide phosphorylation.
The inhibitor concentration was plotted versus the emission ratio to determine the IC50 using XLFit 5.0 (IDBS, Guildford) to fit to a sigmoidal dose response curve with a variable slope.

Each structure is given as a SMILES string.

LRRK2, sequence (Q5S007 970-2527 limits assumed): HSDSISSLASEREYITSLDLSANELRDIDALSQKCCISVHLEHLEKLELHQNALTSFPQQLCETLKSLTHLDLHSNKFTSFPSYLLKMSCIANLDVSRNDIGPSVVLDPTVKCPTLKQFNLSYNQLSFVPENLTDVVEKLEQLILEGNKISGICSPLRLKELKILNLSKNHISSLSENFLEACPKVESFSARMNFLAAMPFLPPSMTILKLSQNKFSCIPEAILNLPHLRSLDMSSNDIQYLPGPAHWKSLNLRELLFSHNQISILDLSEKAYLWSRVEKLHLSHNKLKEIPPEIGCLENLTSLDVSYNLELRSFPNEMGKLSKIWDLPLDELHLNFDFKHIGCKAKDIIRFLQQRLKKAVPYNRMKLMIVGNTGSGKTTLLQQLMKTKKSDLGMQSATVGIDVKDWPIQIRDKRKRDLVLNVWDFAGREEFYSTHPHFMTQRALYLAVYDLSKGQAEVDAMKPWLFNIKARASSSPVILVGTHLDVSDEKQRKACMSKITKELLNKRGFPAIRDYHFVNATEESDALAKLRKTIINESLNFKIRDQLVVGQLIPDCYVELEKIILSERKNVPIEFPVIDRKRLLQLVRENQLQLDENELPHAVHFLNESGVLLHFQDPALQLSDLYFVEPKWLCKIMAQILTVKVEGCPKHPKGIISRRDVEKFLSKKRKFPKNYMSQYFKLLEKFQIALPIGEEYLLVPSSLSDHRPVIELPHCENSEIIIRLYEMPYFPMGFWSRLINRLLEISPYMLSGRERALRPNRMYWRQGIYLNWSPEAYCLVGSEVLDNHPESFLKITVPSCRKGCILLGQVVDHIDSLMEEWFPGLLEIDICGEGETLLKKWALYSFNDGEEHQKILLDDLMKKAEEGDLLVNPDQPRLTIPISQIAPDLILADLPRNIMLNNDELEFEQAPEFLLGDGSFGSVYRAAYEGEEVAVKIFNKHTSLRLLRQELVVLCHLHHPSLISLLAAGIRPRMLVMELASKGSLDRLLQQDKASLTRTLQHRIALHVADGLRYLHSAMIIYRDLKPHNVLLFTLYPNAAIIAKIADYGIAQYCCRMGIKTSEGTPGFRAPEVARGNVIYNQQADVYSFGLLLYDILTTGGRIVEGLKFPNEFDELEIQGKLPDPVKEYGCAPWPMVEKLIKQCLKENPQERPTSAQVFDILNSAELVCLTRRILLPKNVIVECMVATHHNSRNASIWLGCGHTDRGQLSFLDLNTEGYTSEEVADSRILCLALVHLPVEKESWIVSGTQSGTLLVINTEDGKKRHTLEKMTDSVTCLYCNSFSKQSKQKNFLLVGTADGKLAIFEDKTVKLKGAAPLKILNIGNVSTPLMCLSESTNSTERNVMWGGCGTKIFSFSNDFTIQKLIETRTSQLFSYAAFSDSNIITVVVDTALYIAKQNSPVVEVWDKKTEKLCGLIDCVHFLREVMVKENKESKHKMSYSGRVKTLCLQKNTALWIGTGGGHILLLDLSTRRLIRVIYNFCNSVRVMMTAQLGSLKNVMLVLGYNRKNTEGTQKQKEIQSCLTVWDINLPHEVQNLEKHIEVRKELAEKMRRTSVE

As to `COc1cc(Nc2nc3ccccc3c3c[nH]nc23)cc(OC)c1OC` [Example #3, (2H-Pyrazolo[3,4-c]quinolin-4-yl)-(3,4,5-trimethoxy-phenyl)-amine], the Ki at SYK kinase is 100 to 1000 nM. The IC50 on LRRK2 was 100 to 1000 nM.

As to `COc1ccc2nc(Nc3ccc4c[nH]nc4c3)c3n[nH]cc3c2c1` [Example #15, (2H-Indazol-6-yl)-(8-methoxy-2H-pyrazolo[3,4-c]quinolin-4-yl)-amine], the IC50 on LRRK2 was in the range of 100 to 1000 nM.

Consider `COc1ccc2nc(Nc3cccc(C)c3)c3n[nH]cc3c2c1` [Example #37, (8-Methoxy-2H-pyrazolo[3,4-c]quinolin-4-yl)-m-tolyl-amine], for which the Ki on SYK kinase is 100 to 1000 nM. Besides, on LRRK2, the IC50 was in the range of 100 to 1000 nM.

With `COc1ccc2nc(Nc3ccc4cnn(C)c4c3)c3n[nH]cc3c2c1` [Example #40, (8-Methoxy-2H-pyrazolo[3,4-c]quinolin-4-yl)-(1-methyl-1H-indazol-6-yl)-amine], the Ki at SYK kinase was below 10 nM. The IC50 on LRRK2 was in the range of 100 to 1000 nM.

Consider `Brc1ccc2nc(Nc3ccc4[nH]ncc4c3)c3n[nH]cc3c2c1` [Example #45, (8-Bromo-2H-pyrazolo[3,4-c]quinolin-4-yl)-(1H-indazol-5-yl)-amine], for which the Ki at SYK kinase was 10 to 100 nM. For the same compound, the IC50 on LRRK2 lay within 100 to 1000 nM.

On to `O=C1COc2ccc(Nc3nc4ccccc4c4cn[nH]c34)cc2N1` [Example #46, 6-(3H-Pyrazolo[3,4-c]quinolin-4-ylamino)-4H-benzo[1,4]oxazin-3-one], for which, on SYK kinase, the Ki was 10 to 100 nM. At LRRK2, the half-maximal inhibitory concentration (IC50) lay in the range of 100 to 1000 nM.

Consider `COc1ccc2nc(Nc3ccc4c(c3)NC(=O)CO4)c3[nH]ncc3c2c1` [Example #47, 6-(8-Methoxy-3H-pyrazolo[3,4-c]quinolin-4-ylamino)-4H-benzo[1,4]oxazin-3-one], for which the IC50 on LRRK2 lay in the range of 10 to 100 nM.

Turning to `COc1ccc2nc(Nc3ccc4[nH]nnc4c3)c3n[nH]cc3c2c1` [Example #48, (1H-Benzotriazol-5-yl)-(8-methoxy-2H-pyrazolo[3,4-c]quinolin-4-yl)-amine], the IC50 at LRRK2 fell in the range of 100 to 1000 nM.

`COc1ccc2nc(Nc3ccc(N4CCCCC4)cc3)c3n[nH]cc3c2c1` [Example #50, (8-Methoxy-2H-pyrazolo[3,4-c]quinolin-4-yl)-(4-piperidin-1-yl-phenyl)-amine]: the Ki at SYK kinase was 10 to 100 nM. The IC50 on LRRK2 lay within 100 to 1000 nM.

Take `COc1ccc2nc(Nc3ccc(N(C)C)cc3)c3n[nH]cc3c2c1` [Example #51, N-(8-Methoxy-2H-pyrazolo[3,4-c]quinolin-4-yl)-N′,N′-dimethyl-benzene-1,4-diamine]: the Ki on SYK kinase is 10 to 100 nM. In addition, the IC50 on LRRK2 is 10 to 100 nM.

For `COc1ccc2nc(Nc3ccc(N4CCOCC4)cc3)c3n[nH]cc3c2c1` [Example #54, (8-Methoxy-2H-pyrazolo[3,4-c]quinolin-4-yl)-(4-morpholin-4-yl-phenyl)-amine], the Ki on SYK kinase is 10 to 100 nM. The IC50 on LRRK2 lay in the range of 10 to 100 nM.

Turning to `COc1ccc2nc(Nc3ccc(C#N)cc3)c3n[nH]cc3c2c1` [Example #59, 4-(8-Methoxy-2H-pyrazolo[3,4-c]quinolin-4-ylamino)-benzonitrile], the Ki on SYK kinase was 100 to 1000 nM. Besides, the IC50 at LRRK2 lay within 100 to 1000 nM.

As for `COc1ccc(Nc2nc3ccc(OC)cc3c3c[nH]nc23)cc1` [Example #61, (4-Methoxy-phenyl)-(8-methoxy-2H-pyrazolo[3,4-c]quinolin-4-yl)-amine], at SYK kinase, the Ki is 10 to 100 nM. The IC50 on LRRK2 fell in the range of 100 to 1000 nM.

Turning to `COc1ccc2nc(Nc3cc[nH]n3)c3n[nH]cc3c2c1` [Example #66, (8-Methoxy-2H-pyrazolo[3,4-c]quinolin-4-yl)-(1H-pyrazol-3-yl)-amine], the Ki on SYK kinase is 10 to 100 nM. For the same compound, the IC50 on LRRK2 was in the range of 100 to 1000 nM.

Take `COc1ccc2nc(Nc3ccc4c[nH]nc4c3)c3n[nH]cc3c2c1` [Example #74, (1H-Indazol-6-yl)-(8-methoxy-2H-pyrazolo[3,4-c]quinolin-4-yl)-amine]: the Ki at SYK kinase was 10 to 100 nM. In addition, at LRRK2, the IC50 was in the range of 10 to 100 nM.

In the case of `COc1ccc2nc(Nc3cc(-c4ccccc4)n[nH]3)c3n[nH]cc3c2c1` [Example #77, (8-Methoxy-2H-pyrazolo[3,4-c]quinolin-4-yl)-(5-phenyl-2H-pyrazol-3-yl)-amine], the Ki on SYK kinase is 10 to 100 nM. The IC50 at LRRK2 is below 10 nM.

For `COc1ccc2nc(Nc3cccc(N4CCOCC4)c3)c3[nH]ncc3c2c1` [Example #81, (8-Methoxy-3H-pyrazolo[3,4-c]quinolin-4-yl)-(3-morpholin-4-yl-phenyl)-amine], the Ki on SYK kinase was 100 to 1000 nM. Also, the IC50 at LRRK2 is 100 to 1000 nM.

Turning to `COc1ccc2nc(Nc3cc(C4CCC4)n[nH]3)c3n[nH]cc3c2c1` [Example #85, (5-Cyclobutyl-2H-pyrazol-3-yl)-(8-methoxy-2H-pyrazolo[3,4-c]quinolin-4-yl)-amine], the Ki on SYK kinase is below 10 nM. Besides, the IC50 at LRRK2 is below 10 nM.

For `COc1ccc2nc(Nc3ccc4c(c3)NCC(C)(C)S4)c3n[nH]cc3c2c1` [Example #88, (2,2-Dimethyl-3,4-dihydro-2H-benzo[1,4]thiazin-6-yl)-(8-methoxy-2H-pyrazolo[3,4-c]quinolin-4-yl)-amine], the Ki on SYK kinase was 10 to 100 nM. Further, the IC50 on LRRK2 is below 10 nM.

For the compound `CCOc1cc2nc(Nc3ccc4cn[nH]c4c3)c3n[nH]cc3c2cc1OCC` [Example #92, (7,8-Diethoxy-2H-pyrazolo[3,4-c]quinolin-4-yl)-(1H-indazol-6-yl)-amine], the Ki at SYK kinase was 10 to 100 nM. For the same compound, the IC50 on LRRK2 was 100 to 1000 nM.

`COc1ccc2nc(Nc3ccc4c(c3)NC(=O)CC4)c3n[nH]cc3c2c1` [Example #93, 7-(8-Methoxy-2H-pyrazolo[3,4-c]quinolin-4-ylamino)-3,4-dihydro-1H-quinolin-2-one]: the Ki at SYK kinase is below 10 nM. For the same compound, the concentration for half-maximal inhibition (IC50) on LRRK2 is below 10 nM.

As to `COc1ccc2nc(Nc3ccc4c(c3)NC(=O)CS4)c3[nH]ncc3c2c1` [Example #94, 6-(8-Methoxy-3H-pyrazolo[3,4-c]quinolin-4-ylamino)-4H-benzo[1,4]thiazin-3-one], the Ki on SYK kinase is 10 to 100 nM. Moreover, the IC50 at LRRK2 lay within 10 to 100 nM.

Regarding `COc1ccc2nc(Nc3cc(C(C)(C)C)[nH]n3)c3[nH]ncc3c2c1` [Example #95, (5-tert-Butyl-1H-pyrazol-3-yl)-(8-methoxy-3H-pyrazolo[3,4-c]quinolin-4-yl)-amine], the Ki at SYK kinase is 10 to 100 nM. For the same compound, the IC50 at LRRK2 lay in the range of 10 to 100 nM.

For `COc1ccc2nc(Nc3cc(C)n[nH]3)c3[nH]ncc3c2c1` [Example #96, (8-Methoxy-3H-pyrazolo[3,4-c]quinolin-4-yl)-(5-methyl-2H-pyrazol-3-yl)-amine], the Ki at SYK kinase is 10 to 100 nM. Also, on LRRK2, the IC50 fell in the range of 10 to 100 nM.

Regarding `COc1ccc2nc(Nc3cc(C4CC4)[nH]n3)c3[nH]ncc3c2c1` [Example #97, (5-Cyclopropyl-1H-pyrazol-3-yl)-(8-methoxy-3H-pyrazolo[3,4-c]quinolin-4-yl)-amine], the Ki at SYK kinase is below 10 nM. The IC50 at LRRK2 lay within 10 to 100 nM.

Regarding `COc1ccc2nc(Nc3ccc4c(c3)OCO4)c3n[nH]cc3c2c1` [Example #100, Benzo[1,3]dioxol-5-yl-(8-methoxy-2H-pyrazolo[3,4-c]quinolin-4-yl)-amine], the Ki at SYK kinase was 10 to 100 nM. Moreover, the IC50 on LRRK2 lay in the range of 100 to 1000 nM.

In the case of `COc1ccc2nc(Nc3ccc4c(c3)OCCO4)c3n[nH]cc3c2c1` [Example #101, (2,3-Dihydro-benzo[1,4]dioxin-6-yl)-(8-methoxy-2H-pyrazolo[3,4-c]quinolin-4-yl)-amine], the Ki at SYK kinase is 10 to 100 nM. Further, the IC50 at LRRK2 was 100 to 1000 nM.

`COc1ccc2nc(Nc3ccc(N4CCOCC4)nc3)c3[nH]ncc3c2c1` [Example #103, (8-Methoxy-3H-pyrazolo[3,4-c]quinolin-4-yl)-(6-morpholin-4-yl-pyridin-3-yl)-amine]: the Ki at SYK kinase was 10 to 100 nM. The IC50 on LRRK2 lay in the range of 100 to 1000 nM.

Regarding `COc1ccc2nc(Nc3ccc(C(C)=O)cc3)c3n[nH]cc3c2c1` [Example #145, 1-[4-(8-Methoxy-2H-pyrazolo[3,4-c]quinolin-4-ylamino)-phenyl]-ethanone], the IC50 at LRRK2 lay in the range of 100 to 1000 nM.

As for `COc1ccc(CCNC(=O)Cc2ccc(Nc3nc4ccc(OC)cc4c4c[nH]nc34)cc2)cc1` [Example #215], the half-inhibitory concentration (IC50) at LRRK2 lay in the range of 100 to 1000 nM.

On to `COc1ccc2nc(Nc3ccc(N4CCOCC4)c([N+](=O)[O-])c3)c3n[nH]cc3c2c1` [Example #359, 8-methoxy-N-(4-morpholino-3-nitrophenyl)-2H-pyrazolo[3,4-c]quinolin-4-amine], for which the Ki on SYK kinase was below 10 nM.

`Fc1cc(Nc2nc3cccc(F)c3c3cn[nH]c23)ccc1N1CCOCC1` [Example #364, 9-fluoro-N-(3-fluoro-4-morpholinophenyl)-3H-pyrazolo[3,4-c]quinolin-4-amine]: on LRRK2, the half-inhibitory concentration (IC50) fell in the range of 100 to 1000 nM.
